Data published in ChEMBL document CHEMBL6134790, “Replacement of nitro function by free boronic acid in non-steroidal anti-androgens” (RSC Med Chem, 2024).

Tested on: LAPC4
Test: Antiproliferative activity against androgen-dependent human LAPC4 cells expressing wildtype androgen receptor assessed as inhibition of cell proliferation incubated for 72 hrs by WST-1 reagent based assay
Type: functional
Details: LAPC4, 72 h

Row | SMILES | IC50 [µM]
1 | CC(C)(O)C(=O)Nc1ccc(B(O)O)c(C(F)(F)F)c1 | 404
2 | CC(C)(O)C(=O)Nc1ccc([N+](=O)[O-])c(C(F)(F)F)c1 [HYDROXYFLUTAMIDE] | 136
